From patent US9255096B1, “Substituted 1,2,3,4-tetrahydrobenzo[C][2,7] naphthyridines and derivatives thereof as kinase inhibitors” (Allergan, Inc., priority 2014, dated 2016)

How the values were obtained:
[1] = biological target: T1, VEGFR2 (Homo sapiens (Human), UniProt P35968); assay: VEGFR2 Kinase Assay (enzyme); type: biochemical; settings: purified cytoplasmic domain KDR protein, 2.7 μM ATP
Description: VEGFR2 Kinase Assay: Biochemical KDR kinase assays were performed in 96 well microtiter plates that were coated overnight with 75 μg/well of poly-Glu-[…]:1) in 10 mM Phosphate Buffered Saline (PBS), pH 7.4. The coated plates were washed with 2 mls per well PBS+0.05% Tween-20 (PBS-T), blocked by incubation with PBS containing 1% BSA, then washed with 2 mls per well PBS-T prior to starting the reaction. Reactions were carried out in 100 μL reaction volumes containing 2.7 μM ATP in kinase buffer (50 mM Hepes buffer pH 7.4, 20 mM MgCl2, 0.1 mM MnCl2 and 0.2 mM Na3VO4). Test compounds were reconstituted in 100% DMSO and added to the reaction to give a final DMSO concentration of 5%. Reactions were initiated by the addition 20 ul per well of kinase buffer containing 200-300 ng purified cytoplasmic domain KDR protein (BPS Bioscience, San Diego, Calif.). Following a 15 minute incubation at 30° C., the reactions were washed 2 mls per well PBS-T. 100 μl of a monoclonal anti-phosphotyrosine antibody-peroxidase conjugate diluted 1:10,000 in PBS-T was added to the wells for 30 minutes. Following a 2 mls per well wash with PBS-Tween-20, 100 μl of 0-Phenylenediamine Dihydrochloride in phosphate-citrate buffer, containing urea hydrogen peroxide, was added to the wells for 7-10 minutes as a colorimetric substrate for the peroxidase. The reaction was terminated by the addition of 100 μl of 2.5N H2SO4 to each well and read using a microplate ELISA reader set at 492 nm. IC50 values for compound inhibition were calculated directly from graphs of optical density (arbitrary units) versus compound concentration following subtraction of blank values.
Target sequence in this assay (P35968 786-1356): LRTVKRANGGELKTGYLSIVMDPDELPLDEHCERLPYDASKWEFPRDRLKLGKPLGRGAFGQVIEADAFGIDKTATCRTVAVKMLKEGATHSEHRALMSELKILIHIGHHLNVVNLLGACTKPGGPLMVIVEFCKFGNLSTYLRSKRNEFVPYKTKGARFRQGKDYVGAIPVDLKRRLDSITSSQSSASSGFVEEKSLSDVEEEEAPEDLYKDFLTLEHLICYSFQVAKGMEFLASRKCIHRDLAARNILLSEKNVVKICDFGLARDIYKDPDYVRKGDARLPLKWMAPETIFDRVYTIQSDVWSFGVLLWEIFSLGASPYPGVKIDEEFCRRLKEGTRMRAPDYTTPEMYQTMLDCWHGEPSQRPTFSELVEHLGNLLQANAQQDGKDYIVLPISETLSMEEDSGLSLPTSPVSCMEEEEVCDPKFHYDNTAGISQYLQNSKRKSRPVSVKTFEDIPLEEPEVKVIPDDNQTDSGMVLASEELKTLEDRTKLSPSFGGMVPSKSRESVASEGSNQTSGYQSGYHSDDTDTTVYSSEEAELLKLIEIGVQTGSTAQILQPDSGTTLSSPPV

[2] = biological target: T1, VEGFR2; assay: VEGFR2 Cellular Assay; type: cell-based
Target sequence in this assay (P35968 20-1356, species assumed): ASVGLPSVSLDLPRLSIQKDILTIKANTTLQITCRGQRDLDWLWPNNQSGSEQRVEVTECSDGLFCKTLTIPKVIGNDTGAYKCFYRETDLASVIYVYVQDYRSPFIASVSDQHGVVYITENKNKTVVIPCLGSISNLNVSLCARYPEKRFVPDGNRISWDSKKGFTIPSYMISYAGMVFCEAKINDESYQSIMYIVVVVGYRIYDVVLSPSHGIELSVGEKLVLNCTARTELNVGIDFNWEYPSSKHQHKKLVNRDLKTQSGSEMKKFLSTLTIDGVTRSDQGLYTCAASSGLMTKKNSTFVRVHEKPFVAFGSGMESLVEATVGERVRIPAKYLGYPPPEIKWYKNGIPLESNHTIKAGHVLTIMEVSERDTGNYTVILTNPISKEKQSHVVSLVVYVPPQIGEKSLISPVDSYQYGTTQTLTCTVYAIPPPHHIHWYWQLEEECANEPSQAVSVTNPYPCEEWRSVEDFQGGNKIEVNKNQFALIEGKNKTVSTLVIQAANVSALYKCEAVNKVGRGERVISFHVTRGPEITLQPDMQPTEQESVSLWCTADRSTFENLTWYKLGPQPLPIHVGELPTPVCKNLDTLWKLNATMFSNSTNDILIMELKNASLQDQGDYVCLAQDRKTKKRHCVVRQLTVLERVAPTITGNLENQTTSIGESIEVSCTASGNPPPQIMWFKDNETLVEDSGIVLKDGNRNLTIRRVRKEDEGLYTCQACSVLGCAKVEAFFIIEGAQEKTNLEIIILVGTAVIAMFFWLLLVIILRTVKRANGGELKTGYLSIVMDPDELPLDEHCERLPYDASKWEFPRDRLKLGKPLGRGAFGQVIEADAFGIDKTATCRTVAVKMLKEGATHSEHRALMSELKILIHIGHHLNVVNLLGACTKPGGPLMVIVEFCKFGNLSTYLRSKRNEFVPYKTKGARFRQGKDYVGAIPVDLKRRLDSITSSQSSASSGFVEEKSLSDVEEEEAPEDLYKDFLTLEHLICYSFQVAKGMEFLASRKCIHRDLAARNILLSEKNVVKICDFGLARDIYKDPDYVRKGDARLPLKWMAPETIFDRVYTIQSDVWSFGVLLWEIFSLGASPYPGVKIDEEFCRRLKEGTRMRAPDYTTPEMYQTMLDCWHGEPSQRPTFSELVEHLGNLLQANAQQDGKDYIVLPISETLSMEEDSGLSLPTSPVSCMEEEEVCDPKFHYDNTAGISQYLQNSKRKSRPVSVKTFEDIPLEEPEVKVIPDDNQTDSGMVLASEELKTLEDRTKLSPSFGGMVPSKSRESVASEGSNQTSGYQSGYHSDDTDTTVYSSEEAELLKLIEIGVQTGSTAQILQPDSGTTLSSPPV

[3] = biological target: T2, PDGFRβ (Homo sapiens (Human), UniProt P09619); assay: PDGFRβ Kinase Assay (enzyme); type: biochemical; settings: purified cytoplasmic domain PDGFR-b protein, 36 μM ATP
Description: Biochemical PDGFRβ kinase assays were performed in 96 well microtiter plates that were coated overnight with 75 μg of poly-Glu-Tyr (4:1) in 10 mM Phosphate Buffered Saline (PBS), pH 7.4. The coated plates were washed with 2 mls per well PBS+0.05% Tween-20 (PBS-T), blocked by incubation with PBS containing 1% BSA, then washed with 2 mls per well PBS-T prior to starting the reaction. Reactions were carried out in 100 μL reaction volumes containing 36 μM ATP in kinase buffer (50 mM Hepes buffer pH 7.4, 20 mM MgCl2, 0.1 mM MnCl2 and 0.2 mM Na3VO4). Test compounds were reconstituted in 100% DMSO and added to the reaction to give a final DMSO concentration of 5%. Reactions were initiated by the addition 20 ul per well of kinase buffer containing 200-300 ng purified cytoplasmic domain PDGFR-b protein (Millipore). Following a 60 minute incubation at 30° C., the reactions were washed 2 mls per well PBS-T. 100 μl of a monoclonal anti-phosphotyrosine antibody-peroxidase conjugate diluted 1:10,000 in PBS-T was added to the wells for 30 minutes. Following a 2 mls per well wash with PBS-Tween-20, 100 μl of 0-Phenylenediamine Dihydrochloride in phosphate-citrate buffer, containing urea hydrogen peroxide, was added to the wells for 7-10 minutes as a colorimetric substrate for the peroxidase. The reaction was terminated by the addition of 100 μl of 2.5N H2SO4 to each well and read using a microplate ELISA reader set at 492 nm. IC50 values for compound inhibition were calculated directly from graphs of optical density (arbitrary units) versus compound concentration following subtraction of blank values.
Target sequence in this assay (P09619 554-1106): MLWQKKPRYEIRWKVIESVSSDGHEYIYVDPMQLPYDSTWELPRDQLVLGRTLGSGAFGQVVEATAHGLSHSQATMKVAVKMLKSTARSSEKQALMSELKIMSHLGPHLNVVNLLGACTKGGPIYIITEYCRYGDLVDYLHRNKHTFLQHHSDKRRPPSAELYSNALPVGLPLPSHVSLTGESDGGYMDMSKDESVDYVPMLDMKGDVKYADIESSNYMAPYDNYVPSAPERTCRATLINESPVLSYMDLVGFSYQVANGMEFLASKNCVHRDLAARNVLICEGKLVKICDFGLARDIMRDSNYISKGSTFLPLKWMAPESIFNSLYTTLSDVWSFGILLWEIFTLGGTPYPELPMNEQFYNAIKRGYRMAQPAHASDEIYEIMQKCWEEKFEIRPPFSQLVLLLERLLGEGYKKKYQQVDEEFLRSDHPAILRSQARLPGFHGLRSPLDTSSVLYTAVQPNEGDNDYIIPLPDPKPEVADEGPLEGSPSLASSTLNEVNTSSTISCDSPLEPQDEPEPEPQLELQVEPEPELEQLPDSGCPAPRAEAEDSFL

[4] = biological target: T2, PDGFRβ; assay: PDGFRβ Cellular Assay; type: cell-based
Target sequence in this assay (P09619 33-1106, species assumed): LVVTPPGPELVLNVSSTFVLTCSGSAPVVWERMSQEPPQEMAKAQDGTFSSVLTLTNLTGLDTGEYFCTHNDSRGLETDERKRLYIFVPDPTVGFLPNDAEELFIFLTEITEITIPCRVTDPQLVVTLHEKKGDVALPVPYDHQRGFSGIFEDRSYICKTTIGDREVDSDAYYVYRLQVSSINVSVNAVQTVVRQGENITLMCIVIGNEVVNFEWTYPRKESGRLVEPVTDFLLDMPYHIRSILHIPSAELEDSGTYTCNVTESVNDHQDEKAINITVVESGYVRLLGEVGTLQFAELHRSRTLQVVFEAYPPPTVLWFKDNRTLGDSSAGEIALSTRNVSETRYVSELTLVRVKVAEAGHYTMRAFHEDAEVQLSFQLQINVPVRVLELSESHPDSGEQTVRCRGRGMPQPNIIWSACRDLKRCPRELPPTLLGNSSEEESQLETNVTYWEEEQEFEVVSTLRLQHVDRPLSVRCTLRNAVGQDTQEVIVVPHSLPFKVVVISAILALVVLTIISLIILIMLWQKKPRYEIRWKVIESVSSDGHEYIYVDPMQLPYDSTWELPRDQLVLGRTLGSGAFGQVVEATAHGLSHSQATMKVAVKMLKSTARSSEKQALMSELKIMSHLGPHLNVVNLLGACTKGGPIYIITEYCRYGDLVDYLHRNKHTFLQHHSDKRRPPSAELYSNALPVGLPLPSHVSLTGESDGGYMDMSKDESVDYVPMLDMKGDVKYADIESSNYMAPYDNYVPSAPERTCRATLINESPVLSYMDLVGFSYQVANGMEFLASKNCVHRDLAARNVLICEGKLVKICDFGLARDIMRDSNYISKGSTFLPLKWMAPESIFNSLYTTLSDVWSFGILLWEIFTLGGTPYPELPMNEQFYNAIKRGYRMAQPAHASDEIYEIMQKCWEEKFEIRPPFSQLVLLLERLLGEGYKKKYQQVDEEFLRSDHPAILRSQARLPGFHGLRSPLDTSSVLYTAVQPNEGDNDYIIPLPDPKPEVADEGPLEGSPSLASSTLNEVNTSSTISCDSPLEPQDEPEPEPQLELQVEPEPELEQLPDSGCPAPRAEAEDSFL

Compound	IC50 [1]	IC50 [2]	IC50 [3]	IC50 [4]
O=C(Nc1cccc(C(F)(F)F)c1)c1cccc(N2CCc3c(cnc4ccccc34)C2)c1 [Example 7, 3-(1,4-dihydrobenzo[c]-2,7-naphthyridin-3(2H)-yl)-N-[3-(trifluoromethyl)phenyl]benzamide]	10 nM	46 nM	14 nM	103 nM
COc1cc2ncc3c(c2cc1OC)CCN(c1cccc(C(=O)Nc2cccc(C(C)C)c2)c1)C3 [Example 10, 3-(8,9-dimethoxy-1,4-dihydrobenzo[c]-2,7-naphthyridin-3(2H)-yl)-N-(3-isopropylphenyl)benzamide]	7 nM	–	11 nM	–
COc1cc2ncc3c(c2cc1OC)CCN(c1cccc(C(=O)Nc2ccc(C(C)C)cc2)c1)C3 [Example 11, 3-(8,9-dimethoxy-1,4-dihydrobenzo[c]-2,7-naphthyridin-3(2H)-yl)-N-(4-isopropylphenyl)benzamide]	9 nM	20 nM	18 nM	–
CCc1cccc(NC(=O)c2cccc(N3CCc4c(cnc5ccsc45)C3)c2)c1 [Example 14, 3-(8,9-dihydrothieno[3,2-c]-2,7-naphthyridin-7(6H)-yl)-N-(3-ethylphenyl)benzamide]	5 nM	12 nM	7 nM	–

Results, then the compound that gave them:

IC50 [1]	IC50 [2]	IC50 [3]	IC50 [4]	Compound
7 nM	23 nM	16 nM	–	Cc1cccc(NC(=O)c2cccc(N3CCc4c(cnc5ccccc45)C3)c2)c1 [Example 3, 3-(1,4-dihydrobenzo[c]-2,7-naphthyridin-3(2H)-yl)-N-(3-methylphenyl)benzamide]
6 nM	19 nM	10 nM	58 nM	CCc1cccc(NC(=O)c2cccc(N3CCc4c(cnc5ccccc45)C3)c2)c1 [Example 4, 3-(1,4-dihydrobenzo[c]-2,7-naphthyridin-3(2H)-yl)-N-(3-ethylphenyl)benzamide]
7 nM	30 nM	15 nM	200 nM	CC(C)c1cccc(NC(=O)c2cccc(N3CCc4c(cnc5ccccc45)C3)c2)c1 [Example 5, 3-(1,4-dihydrobenzo[c]-2,7-naphthyridin-3(2H)-yl)-N-(3-isopropylphenyl)benzamide]
8 nM	71 nM	16 nM	–	CC(C)c1ccc(NC(=O)c2cccc(N3CCc4c(cnc5ccccc45)C3)c2)cc1 [Example 6, 3-(1,4-dihydrobenzo[c]-2,7-naphthyridin-3(2H)-yl)-N-(4-isopropylphenyl)benzamide]
